Results from patent publication US20130040813A1 (priority 2010, published 2013).
Like-named read-outs stand apart in the source and are kept apart here.

Tests used:
Format in all cases: cell-based
[1] = system: Septoria tritici; assay: Microtest: activity against the wheat leaf blotch pathogen Septoria tritici; conditions: single compound, 7 days
[2] = system: Pyricularia oryzae; assay: microbe, parasite or virus in culture
[3] = system: Botrytis cinerea; assay: Microtest: activity against the grey mold pathogen Botrytis cinerea; conditions: single compound, 7 days; for inhibition of growth at 1 ppm / inhibition of growth at 0.25 ppm / inhibition of growth at 4 ppm: Botrytis cinerea, 168 h, read-out: Observed efficacy
[4] = system: Alternaria solani; assay: Microtest: activity against the early blight pathogen Alternaria solani; conditions: single compound, 7 days
[5] = system: Phytophthora infestans; conditions: single compound, 7 days
[6] = Pyricularia oryzae, 168 h, read-out: Observed efficacy
[7] = Zymoseptoria tritici, 168 h, read-out: Observed efficacy
[8] = Zymoseptoria tritici, 168 h, 0.063 ppm, read-out: Observed efficacy
[9] = Zymoseptoria tritici, 168 h, 0.25 ppm, read-out: Observed efficacy

SMILES	inhibition of growth at 1 ppm [1, 7] [%]	inhibition of growth at 1 ppm [3] [%]	inhibition of growth at 0.016 ppm [2, 6] [%]	Observed efficacy ([5]; 1 ppm) [%]	inhibition of growth at 0.063 ppm [2, 6] [%]	inhibition of growth at 0.25 ppm [2, 6] [%]	inhibition of growth at 4 ppm [3] [%]	inhibition of growth at 0.063 ppm [1, 8] [%]	Observed efficacy ([4]; 1 ppm) [%]	inhibition of growth at 0.25 ppm [1, 9] [%]	further results
CC(C)CC(C)c1sccc1NC(=O)c1cn(C)nc1C(F)(F)F (stereo not shown) [II-10, Penthiopyrad, reference compound]	–	–	–	–	–	–	–	–	–	–	inhibition of growth at 0.016 ppm ([1]; Zymoseptoria tritici, 168 h, 0.016 ppm, read-out: Observed efficacy): 30%
Fc1ccc(Oc2ccnc3cc(Cl)cc(Cl)c23)cc1 [II-15, Quinoxyfen, reference compound]	10	–	–	–	–	–	–	–	–	–	inhibition of growth at 16 ppm [2, 6]: 9%
N#Cc1c(Cl)c(Cl)c(Cl)c(C#N)c1Cl [II-3, Chlorothalonil, reference compound]	–	66	–	–	–	–	–	–	–	–	–
CON=C(C(=O)OC)c1ccccc1CON=C(C)c1cccc(C(F)(F)F)c1 [II-17, Trifloxystrobin, reference compound]	–	–	24	–	–	–	–	–	–	–	inhibition of growth at 0.25 ppm ([3]; 0.25 ppm): 19%; inhibition of growth at 0.004 ppm [1, 7]: 40%; Observed efficacy ([4]; 0.063 ppm): 48%
Cn1cc(C(=O)Nc2ccc(F)cc2-c2ccc(Cl)c(Cl)c2)c(C(F)F)n1 [II-2, Bixafen, reference compound]	–	–	–	–	–	–	–	–	–	–	Observed efficacy ([1]; 0.063 ppm): 40%
COc1cc(CCNc2ncnc3c(F)cc(F)c(F)c23)ccc1Oc1cc(C(F)(F)F)ccn1 [Compound I-19, (5,6,8-Trifluoro-quinazolin-4-yl)-{2-[4-(4-trifluoromethyl-pyridin-2-yloxy)-3-methoxy-phenyl]-ethyl}-amine]	41	12	29	47	51	53	15	40	40	–	inhibition of growth at 4 ppm [2, 6]: 71%
CO/C=C(/C(=O)OC)c1ccccc1Oc1cc(Oc2ccccc2C#N)ncn1 [II-1, Azoxystrobin, reference compound]	–	–	–	–	–	–	–	–	–	–	Observed efficacy ([2]; 0.004 ppm, single compound, 7 days): 12%; Observed efficacy ([3]; 0.25 ppm): 12%; Observed efficacy ([1]; 0.063 ppm): 54%; Observed efficacy ([1]; 0.25 ppm): 73%
Fc1ccc([C@]2(Cn3cncn3)O[C@H]2c2ccccc2Cl)cc1 (racemic) [II-4, Epoxiconazole, reference compound]	–	–	–	–	–	–	–	–	–	–	inhibition of growth at 0.25 ppm ([3]; 0.25 ppm): 40%
Fc1ccc(F)c2c(NCCc3ccc(Oc4cc(C(F)(F)F)ncn4)cc3)ncnc12 [Compound I-3, (5,8-Difluoro-quinazolin-4-yl)-{2-[4-(6-trifluoromethyl-pyrimidin-4-yloxy)-phenyl]-ethyl}-amine]	–	22	34	47	45	43	35	30	35	33	inhibition of growth at 4 ppm [2, 6]: 72%; Observed efficacy ([4]; 0.25 ppm): 38%
COC(=O)N(OC)c1ccccc1COc1ccn(-c2ccc(Cl)cc2)n1 [II-14, Pyraclostrobin, reference compound]	–	–	–	–	–	–	–	–	–	–	Observed efficacy ([5]; 0.063 ppm): 25%; inhibition of growth at 0.004 ppm [2, 6]: 39%; inhibition of growth at 0.25 ppm ([3]; 0.25 ppm): 20%; inhibition of growth at 0.004 ppm [1, 7]: 50%; Observed efficacy ([4]; 0.016 ppm): 34%
COc1cc(CCNc2ncnc3c(F)ccc(F)c23)ccc1Oc1cc(C(F)(F)F)ccn1 [Compound I-18, (5,8-Difluoro-quinazolin-4-yl)-{2-[4-(4-trifluoromethyl-pyridin-2-yloxy)-3-methoxy-phenyl]-ethyl}-amine]	44	11	41	50	49	54	24	41	44	44	Observed efficacy ([4]; 0.25 ppm): 43%
COc1cc(CCNc2ncnc3c(F)ccc(F)c23)ccc1Oc1ncc(C(F)(F)F)cc1Cl [Compound I-17, (5,8-Difluoro-quinazolin-4-yl)-{2-[4-(3-chloro-5-trifluoromethyl-pyridin-2-yloxy)-3-methoxy-phenyl]-ethyl}-amine]	33	4	–	42	14	36	11	–	26	30	inhibition of growth at 4 ppm [2, 6]: 69%
Fc1ccc(F)c2c(NCCc3ccc(Oc4cc(C(F)(F)F)ccn4)cc3)ncnc12 [Compound I-5, (5,8-Difluoro-quinazolin-4-yl)-{2-[4-(4-trifluoromethyl-pyridin-2-yloxy)-phenyl]-ethyl}-amine]	–	14	36	49	54	59	22	37	38	40	Observed efficacy ([4]; 0.25 ppm): 37%
